The subject of assay [1] is hSGLT1 Y290C. The arrangement: method as in PMID 22159082. The conditions noted are these: oocytes, 22 °C; cited from earlier work.
The target in assay [2] is T1, hSGLT1 T287C (Homo sapiens, UniProt P13866, T287C).
T1 construct: expressed in transfected cells; host or cells: Xenopus laevis oocytes injected with cRNA
T1 sequence (P13866 1-664 T287C): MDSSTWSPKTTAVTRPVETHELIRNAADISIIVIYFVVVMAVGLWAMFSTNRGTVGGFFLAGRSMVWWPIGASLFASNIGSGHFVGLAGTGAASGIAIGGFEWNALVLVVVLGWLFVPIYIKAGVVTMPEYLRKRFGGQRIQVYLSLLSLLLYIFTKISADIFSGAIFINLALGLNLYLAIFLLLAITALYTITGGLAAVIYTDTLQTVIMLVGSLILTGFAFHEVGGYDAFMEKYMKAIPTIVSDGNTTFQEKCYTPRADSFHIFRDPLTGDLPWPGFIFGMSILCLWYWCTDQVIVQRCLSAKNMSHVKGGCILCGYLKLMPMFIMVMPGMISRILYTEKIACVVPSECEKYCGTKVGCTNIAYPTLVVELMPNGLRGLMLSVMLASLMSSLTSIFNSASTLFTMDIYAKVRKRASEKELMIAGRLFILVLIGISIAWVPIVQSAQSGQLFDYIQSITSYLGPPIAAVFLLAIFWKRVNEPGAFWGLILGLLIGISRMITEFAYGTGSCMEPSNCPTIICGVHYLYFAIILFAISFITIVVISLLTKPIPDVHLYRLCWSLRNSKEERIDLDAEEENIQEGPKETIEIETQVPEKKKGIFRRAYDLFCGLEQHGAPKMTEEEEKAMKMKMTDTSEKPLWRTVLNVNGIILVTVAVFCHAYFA
Details: method as in PMID 29087341. Particulars: oocytes, 22 °C; cited from earlier work.

The subject of assay [3] is hSGLT1 F101C. Details: method as in PMID 22159082. Particulars: oocytes, 22 °C; cited from earlier work.
Assay [4] relates to hSGLT1 Q457C. The arrangement: method as in PMID 22159082. The conditions noted are these: oocytes, 22 °C; cited from earlier work.
The target of assay [5] is T2, hSGLT2 wild-type (Homo sapiens, UniProt P31639).
T2 sequence (P31639 1-672): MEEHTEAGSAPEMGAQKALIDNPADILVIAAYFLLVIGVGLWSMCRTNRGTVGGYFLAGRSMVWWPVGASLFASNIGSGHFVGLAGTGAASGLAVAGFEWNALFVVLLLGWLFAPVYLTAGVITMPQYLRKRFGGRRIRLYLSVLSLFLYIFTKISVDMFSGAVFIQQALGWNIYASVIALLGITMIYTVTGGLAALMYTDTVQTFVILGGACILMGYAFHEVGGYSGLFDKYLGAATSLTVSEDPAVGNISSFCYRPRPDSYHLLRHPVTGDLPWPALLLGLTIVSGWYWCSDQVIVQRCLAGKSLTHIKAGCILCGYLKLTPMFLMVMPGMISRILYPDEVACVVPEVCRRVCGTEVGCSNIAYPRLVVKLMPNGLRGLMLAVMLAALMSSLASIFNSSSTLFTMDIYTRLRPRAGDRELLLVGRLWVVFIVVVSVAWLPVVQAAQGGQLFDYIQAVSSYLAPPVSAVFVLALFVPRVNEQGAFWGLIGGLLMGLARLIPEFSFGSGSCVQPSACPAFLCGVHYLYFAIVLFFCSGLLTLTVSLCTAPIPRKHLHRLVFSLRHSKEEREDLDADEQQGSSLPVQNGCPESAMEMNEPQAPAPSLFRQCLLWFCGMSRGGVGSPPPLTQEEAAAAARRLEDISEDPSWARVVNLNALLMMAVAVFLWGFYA
T2 sequence (Q13113 1-114 partner): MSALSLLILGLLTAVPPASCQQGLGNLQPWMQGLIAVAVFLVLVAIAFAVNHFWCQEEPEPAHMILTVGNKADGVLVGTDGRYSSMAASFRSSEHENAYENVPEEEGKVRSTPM
In words: SGLT current measurement in oocytes, hSGLT2 wild-type (MAP17 co-injected). Details: expressed in transfected cells; host or cells: Xenopus laevis oocytes injected with hSGLT2 cRNA and MAP17 cRNA. Particulars: 22 °C. Format: cell-based. The method, then: Xenopus laevis (Nasco) oocytes (V–VI) were prepared as previously described[20] and injected with 50 nl of cRNA (1 μg/μl). […] Briefly, oocytes were incubated for 30 min in the presence of 50 μM αMDG (5 μM [^14C]αMDG) in a buffer containing (in mM) 100 NaCl, 2 KCl, 1 MgCl2, 1 CaCl2, and 10 N-(2-hydroxyethyl)piperazine-N′-(2-ethanesulfonic acid) (HEPES)/Tris (pH 7.5). After incubation, oocytes were rinsed thoroughly with ice-cold buffer containing (mM) 100 choline Cl^–, 2 KCl, 1 MgCl2, 1 CaCl2, and 10 HEPES/Tris (pH 7.5), individually lysed with 5% sodium dodecyl sulfate, and assayed for radioactivity.
Injected oocytes were incubated at 18 °C, and after 3–4 days, two electrode voltage clamp experiments were performed as previously described. Briefly, SGLT inward glucose currents were measured as a function of the external Na^+ (0–100 mM NaCl), sugar (0–100 mM αMDG), and inhibitors (0.001–100 μM). Steady-state and hSGLT1 capacitive currents were recorded using voltage steps from a holding voltage, Vh of −60 mV, to voltages in the range of −180 to +50 mV in 20 mV increments. The apparent affinity of αMDG, K0.5, was estimated from plots of the inward current as a function of the external αMDG concentration. Under our experimental conditions, K0.5 is a close approximation of the αMDG binding constant to the Na^+-bound outward conformation of SGLT. The apparent affinity for Na^+, K0.5, was estimated from plots of the αMDG inward current as a function of external Na^+ concentration. For hSGLT1 the interpretation of K0.5 is more complex owing to the presence of two Na^+ binding sites. In this case, the K0.5 is a lumped coefficient for Na^+ binding to the two sites in the outward-facing hSGLT1 conformation. […] The Na^+-to-αMDG stoichiometry was determined from the reversal potential measurements using the Gibbs free energy as previously described. The stoichiometry determinations were reinforced by estimates of αMDG and Na^+ Hill coefficients, and in some cases, by measurement of ^22Na and [^14C]αMDG uptakes under voltage clamp, [21].

Consider `[Na+]` [Na^+], for which the “K0.5 Na^+” value was 46 ± 5[20] mM in assay [1]; 6 ± 0.2[19] mM in assay [2]; 9 ± 1[20] mM in assay [3]; 34 ± 2[20] mM in assay [4]; 22 ± 1 mM in assay [5].

These data come from publication PMC6286348, “Inhibitor binding mode and allosteric regulation of Na^+-glucose symporters” (Nature Communications, 2018).
